Values quoted from earlier work in patent US20060223182A1, “Device for producing autologous VEGF” (priority 2005, published 2006).
Read-outs that look alike come from different tables or passages of the source.

How the values were obtained:
human keratinocytes [1] = settings: baseline about 200 pg/ml
human macrophages = settings: 0.5 mM H2O2 for about 30 minutes
human keratinocytes [2] = settings: human keratinocytes cultured in H2O2, with cycloheximide

Molecule: OO [H2O2, hydrogen peroxide]
- VEGF production level (human keratinocytes [1]; H2O2 250 uM): about 600 pg/ml
- VEGF produced per cell (human macrophages): about 2.5 fg VEGF/cell

Molecule: TNF-α
- VEGF production level (human keratinocytes [1]; TNF-α 25 ng/ml): about 600 pg/ml

Molecule: TGF-β: growth factor, obtainable from platelet releasate
- increase in steady state levels of VEGF mRNA (VSMCs; 0.3 ng/ml TGF-β, 4 hours, 21% O2, printed as 'similar increase' to 2.5% O2 alone): 1.5-2 fold
- increase in the level of VEGF mRNA (VSMCs; combined treatment of TGF-β and incubation at 2.5% O2): ~7 fold

Molecule: C[C@@H]1C[C@@H]([C@H](O)CC2CC(=O)NC(=O)C2)C(=O)[C@@H](C)C1 [cycloheximide]
- level of mRNA produced by the superinduction relative to mere addition of H2O2 (human keratinocytes [2]): at least 10 fold
